Measurements from patent publication US10584124B2, “Crystalline forms” (Array BioPharma Inc., priority 2017, dated 2020).
Like-named read-outs stand apart in the source and are kept apart here.

How the values were obtained:
[1] = Screen of conditions for sulfuric and phosphoric acid salts of Formula I (freebase solubility observations); type: physicochemical; conditions: 25° C.
Source text: The use of sulfuric acid in 4:1 DCM/EtOH provided a filterable solid after stirring overnight.

[2] = Solubility of the free base of the compound of Formula I in solvents and mixed solvent systems; type: physicochemical; conditions: for solubility: thermodynamic from solid
Protocol: The solubility was also determined in mixed solvent systems such as DCM/EtOH, DMSO/EtOH, DMSO/water, THF/EtOH, and THF/water.
The solubility studies were conducted as follows. […] The samples were then heated to 60° C. Should the solids dissolve on heating, more freebase was added in 3 to 5 mg portions.

SMILES: COc1ccc(CN2CCN(c3ccc(-c4cc(-c5cnn(C)c5)cn5ncc(C#N)c45)cn3)CC2)cn1 [freebase of the compound of Formula I, 4-(6-(4-((6-methoxypyridin-3-yl)methyl)piperazin-1-yl)pyridin-3-yl)-6-(1-methyl-1H-pyrazol-4-yl)pyrazolo[1,5-a]pyridine-3-carbonitrile]
- Solubility (in words) ([1]; 4:1 DCM/EtOH (100 vol)): dissolve
- Solubility (in words) ([1]; THF, EtOH, and 1:1 DCM/EtOH (100 vol)): limited solubility
- solubility ([2]; 0.1M HCl, 25 °C, simulated gastric fluid, read-out: Solubility at 25° C.): 1500 µg/mL
- solubility ([2]; 10% THF in H2O, 25 °C, aqueous with cosolvent or surfactant or cyclodextrin, title: THF/H2O at room temperature, head: % THF in EtOH = 10, read-out: Solubility): 150 µg/mL
- solubility ([2]; 20% THF in H2O, 25 °C, aqueous with cosolvent or surfactant or cyclodextrin, title: THF/H2O at room temperature, head: % THF in EtOH = 20, read-out: Solubility): 130 µg/mL
- solubility ([2]; 25 °C, aqueous with cosolvent or surfactant or cyclodextrin, 20% DMSO in H2O, room temperature, read-out: Solubility): 80 µg/mL
- solubility ([2]; 25 °C, aqueous with cosolvent or surfactant or cyclodextrin, 30% DMSO in H2O, room temperature, read-out: Solubility): 90 µg/mL
- solubility ([2]; 25 °C, aqueous with cosolvent or surfactant or cyclodextrin, 40% DMSO in H2O, room temperature, read-out: Solubility): 100 µg/mL
- solubility ([2]; 25 °C, aqueous with cosolvent or surfactant or cyclodextrin, 50% DMSO in H2O, room temperature, read-out: Solubility): 90 µg/mL
- solubility ([2]; 25 °C, aqueous with cosolvent or surfactant or cyclodextrin, 60% DMSO in H2O, room temperature, read-out: Solubility): 100 µg/mL
- solubility ([2]; 25 °C, aqueous with cosolvent or surfactant or cyclodextrin, 70% DMSO in H2O, room temperature, read-out: Solubility): 150 µg/mL
- solubility ([2]; 25 °C, aqueous with cosolvent or surfactant or cyclodextrin, 80% DMSO in H2O, room temperature, read-out: Solubility): 350 µg/mL
- solubility ([2]; 25 °C, aqueous with cosolvent or surfactant or cyclodextrin, 90% DMSO in H2O, room temperature, read-out: Solubility): 1520 µg/mL
- solubility ([2]; 25 °C, organic solvent or mixture, 20% DCM in EtOH, room temperature, read-out: Solubility): 260 µg/mL
- solubility ([2]; 25 °C, organic solvent or mixture, 20% DMSO in EtOH, room temperature, read-out: Solubility): 180 µg/mL
- solubility ([2]; 25 °C, organic solvent or mixture, 20% THF in EtOH, room temperature, read-out: Solubility): 340 µg/mL
- solubility ([2]; 25 °C, organic solvent or mixture, 30% DCM in EtOH, room temperature, read-out: Solubility): 870 µg/mL
- solubility ([2]; 25 °C, organic solvent or mixture, 30% DMSO in EtOH, room temperature, read-out: Solubility): 390 µg/mL
- solubility ([2]; 25 °C, organic solvent or mixture, 30% THF in EtOH, room temperature, read-out: Solubility): 550 µg/mL
- solubility ([2]; 25 °C, organic solvent or mixture, 40% DCM in EtOH, room temperature, read-out: Solubility): 2530 µg/mL
- solubility ([2]; 25 °C, organic solvent or mixture, 40% DMSO in EtOH, room temperature, read-out: Solubility): 610 µg/mL
- solubility ([2]; 25 °C, organic solvent or mixture, 40% THF in EtOH, room temperature, read-out: Solubility): 820 µg/mL
- solubility ([2]; 25 °C, organic solvent or mixture, 50% DCM in EtOH, room temperature, read-out: Solubility): 7420 µg/mL
- solubility ([2]; 25 °C, organic solvent or mixture, 50% DMSO in EtOH, room temperature, read-out: Solubility): 1140 µg/mL
- solubility ([2]; 25 °C, organic solvent or mixture, 50% THF in EtOH, room temperature, read-out: Solubility): 1380 µg/mL
- solubility ([2]; 25 °C, organic solvent or mixture, 60% DCM in EtOH, room temperature, read-out: Solubility): 16600 µg/mL
- solubility ([2]; 25 °C, organic solvent or mixture, 60% DMSO in EtOH, room temperature, read-out: Solubility): 1800 µg/mL
- solubility ([2]; 25 °C, organic solvent or mixture, 60% THF in EtOH, room temperature, read-out: Solubility): 1970 µg/mL
- solubility ([2]; 25 °C, organic solvent or mixture, 70% DCM in EtOH, room temperature, read-out: Solubility): 22700 µg/mL
- solubility ([2]; 25 °C, organic solvent or mixture, 70% DMSO in EtOH, room temperature, read-out: Solubility): 2570 µg/mL
- solubility ([2]; 25 °C, organic solvent or mixture, 70% THF in EtOH, room temperature, read-out: Solubility): 2510 µg/mL
- solubility ([2]; 25 °C, organic solvent or mixture, 80% DCM in EtOH, room temperature, read-out: Solubility): 29000 µg/mL
- solubility ([2]; 25 °C, organic solvent or mixture, 80% DMSO in EtOH, room temperature, read-out: Solubility): 4280 µg/mL
- solubility ([2]; 25 °C, organic solvent or mixture, 80% THF in EtOH, room temperature, read-out: Solubility): 3090 µg/mL
- solubility ([2]; 25 °C, organic solvent or mixture, 90% DCM in EtOH, room temperature, read-out: Solubility): 34200 µg/mL
- solubility ([2]; 25 °C, organic solvent or mixture, 90% DMSO in EtOH, room temperature, read-out: Solubility): 4440 µg/mL
- solubility ([2]; 25 °C, organic solvent or mixture, 90% THF in EtOH, room temperature, read-out: Solubility): 3180 µg/mL
- solubility ([2]; 25 °C, organic solvent or mixture, 100% DMSO in EtOH, room temperature, read-out: Solubility): 6960 µg/mL
- solubility ([2]; 30% THF in H2O, 25 °C, aqueous with cosolvent or surfactant or cyclodextrin, title: THF/H2O at room temperature, head: % THF in EtOH = 30, read-out: Solubility): 350 µg/mL
- solubility ([2]; 40% THF in H2O, 25 °C, aqueous with cosolvent or surfactant or cyclodextrin, title: THF/H2O at room temperature, head: % THF in EtOH = 40, read-out: Solubility): 1360 µg/mL
- solubility ([2]; 50% THF in H2O, 25 °C, aqueous with cosolvent or surfactant or cyclodextrin, title: THF/H2O at room temperature, head: % THF in EtOH = 50, read-out: Solubility): 2500 µg/mL
- solubility ([2]; 60% THF in H2O, 25 °C, aqueous with cosolvent or surfactant or cyclodextrin, title: THF/H2O at room temperature, head: % THF in EtOH = 60, read-out: Solubility): 3760 µg/mL
- solubility ([2]; 70% THF in H2O, 25 °C, aqueous with cosolvent or surfactant or cyclodextrin, title: THF/H2O at room temperature, head: % THF in EtOH = 70, read-out: Solubility): 6170 µg/mL
- solubility ([2]; 80% THF in H2O, 25 °C, aqueous with cosolvent or surfactant or cyclodextrin, title: THF/H2O at room temperature, head: % THF in EtOH = 80, read-out: Solubility): 6650 µg/mL
- solubility ([2]; 90% THF in H2O, 25 °C, aqueous with cosolvent or surfactant or cyclodextrin, title: THF/H2O at room temperature, head: % THF in EtOH = 90, read-out: Solubility): 6560 µg/mL
- solubility ([2]; 100% DMSO (DMSO/H2O series), 25 °C, organic solvent or mixture, 100% DMSO in H2O, room temperature, read-out: Solubility): 6960 µg/mL
- solubility ([2]; 100% THF (THF/EtOH series), 25 °C, organic solvent or mixture, 100% THF in EtOH, room temperature, read-out: Solubility): 2590 µg/mL
- solubility ([2]; 100% THF (THF/H2O series), 25 °C, organic solvent or mixture, title: THF/H2O at room temperature, head: % THF in EtOH = 100, read-out: Solubility): 2590 µg/mL
- Solids dissolve at 60° C.? ([2]; ACN): No
- solubility ([2]; ACN, 25 °C, organic solvent or mixture, read-out: Solubility at 25° C.): 330 µg/mL
- solubility ([2]; DCE, 25 °C, organic solvent or mixture, read-out: Solubility at 25° C.): 4600 µg/mL
- Solids dissolve at 60° C.? ([2]; EtOAc): No
- solubility ([2]; EtOAc, 25 °C, organic solvent or mixture, read-out: Solubility at 25° C.): 360 µg/mL
- Solids dissolve at 60° C.? ([2]; EtOH): No
- solubility ([2]; EtOH, 25 °C, organic solvent or mixture, read-out: Solubility at 25° C.): 40 µg/mL
- Solids dissolve at 60° C.? ([2]; IPA): No
- Solids dissolve at 60° C.? ([2]; MEK): No
- solubility ([2]; MEK, 25 °C, organic solvent or mixture, read-out: Solubility at 25° C.): 690 µg/mL
- Solids dissolve at 60° C.? ([2]; MeOH): No
- solubility ([2]; MeOH, 25 °C, organic solvent or mixture, read-out: Solubility at 25° C.): 70 µg/mL
- Solids dissolve at 60° C.? ([2]; THF): Yes
- freebase dissolved in THF at 60° C. ([2]; THF (1 mL), 60° C., solution turned milky at 13 mg): 10 to 13 mg
- Solids dissolve at 60° C.? ([2]; acetone): No
- solubility ([2]; acetone, 25 °C, organic solvent or mixture, read-out: Solubility at 25° C.): 440 µg/mL
- solubility ([2]; aqueous with cosolvent or surfactant or cyclodextrin, 10% DMSO in H2O, room temperature, read-out: Solubility): 90 µg/mL
- Solids dissolve at 60° C.? ([2]; iPAc): No
- solubility ([2]; iPAc, 25 °C, organic solvent or mixture, read-out: Solubility at 25° C.): 250 µg/mL
- solubility ([2]; organic solvent or mixture, 0% DCM in EtOH, room temperature, read-out: Solubility): 50 µg/mL
- solubility ([2]; organic solvent or mixture, 0% DMSO in EtOH, room temperature, read-out: Solubility): 50 µg/mL
- solubility ([2]; organic solvent or mixture, 10% DCM in EtOH, room temperature, read-out: Solubility): 60 µg/mL
- solubility ([2]; organic solvent or mixture, 10% DMSO in EtOH, room temperature, read-out: Solubility): 90 µg/mL
- solubility ([2]; organic solvent or mixture, 10% THF in EtOH, room temperature, read-out: Solubility): 290 µg/mL
- solubility ([2]; organic solvent or mixture, 100% DCM in EtOH, room temperature, read-out: Solubility): 17300 µg/mL
- solubility ([2]; organic solvent or mixture, DMA, 60° C., read-out: Solubility at 60° C.): > 40000 µg/mL
- solubility ([2]; organic solvent or mixture, THF, 60° C., read-out: Solubility at 60° C.): 10200 to 13000 µg/mL
- Solids dissolve at 60° C.? ([2]; toluene): No
- solubility ([2]; toluene, 25 °C, organic solvent or mixture, read-out: Solubility at 25° C.): 350 µg/mL
- solubility ([2]; water, 25 °C, water, read-out: Solubility at 25° C.): 70 µg/mL
